Values quoted from earlier work as cited in patent publication US8354043B2, “Natural gas odorization” (Enersol Inc., N.A.L.P., priority 2008, dated 2013).
Counter-ions that a name gives are not always drawn.

Conditions: 20° C. and 1 atm

Molecule	Pvap @ 20° C. (vapor pressure)
CC(=O)C=O [Compound 42, 2-Oxo-propanal]	0.52 psi
O=CC1CCCC1 [Compound 36, Cyclopentaldehyde]	0.17 psi
CC(=O)CCC(C)=O [Compound 27, 2,5-Hexanedione]	0.01 psi
CC(C)OC=O [Compound 49, Isopropyl formate]	2.67 psi
CC=CC=O [Compound 43, 2-Butenal]	0.58 psi
CCCC(=O)C(C)=O [Compound 24, 2,3-Hexanedione]	0.19 psi
CC(=O)CC(C)=O [Compound 25, Aceylacetone]	0.13 psi
CCCOC=O [Compound 48, Propyl formate]	1.60 psi
O=C1CCCO1 [Compound 17, γ-Butyrolactone]	0.03 psi
O=CC1CCCCC1 [Compound 34, Cyclohexanal]	0.05 psi

Same assay, conditions: 25° C. and 1 atm

Molecule	Pvap @ 25° C. (vapor pressure)
O=CCC=O [Compound 39, Malondialdehyde]	0.09 psi
3-Cyclohex-1-one [Compound 10]	0.04 psi
O=CC=O [Compound 38, Ethanedial]	4.93 psi
CC(=O)C1=CCCCC1 [Compound 13, 1-(1-Cyclohexen-1-yl)-ethanone]	0.003 psi
CCOC=O [Compound 47, Ethyl formate]	4.74 psi
CCC(=O)C(C)=O [Compound 23, 2,3-Petanedione]	0.60 psi
CC(=O)CCC(C)=O [Compound 27, 2,5-Hexanedione]	0.06 psi
CC(=O)C1CCCC1 [Compound 21, 1-Cyclopentyl-ethanone]	0.07 psi
O=C1C=CCCC1 [Compound 9, 2-Cyclohex-2-en-1-one]	0.07 psi
O=CCCCC=O [Compound 41, Pentane-1,5-dial]	0.01 psi
O=c1ccocc1 [Compound 2, 4-Pyrone]	0.004 psi
CCCC(=O)C(C)=O [Compound 24, 2,3-Hexanedione]	0.06 psi
C=CC(C)=O [Compound 28, Methyl vinyl ketone]	2.94 psi
C=CC(=O)CC [Compound 29, Ethyl vinyl ketone]	0.74 psi
O=C1C=CCC1 [Compound 18, 2-Cyclopenten-1-one]	0.18 psi
O=C1CC=CO1 [Compound 15, 2(3H)-Furanone]	0.02 psi
CC(=O)CC(C)=O [Compound 25, Aceylacetone]	0.06 psi
O=C1CCCCC1 [Compound 11, Cyclohexanone]	0.08 psi
CCC(=O)CC(C)=O [Compound 26, 2,4-Hexandione]	0.06 psi
CC(=O)C1CCCCC1 [Compound 12, Cyclohexyl methyl ketone]	.02 psi
O=C1CCCO1 [Compound 17, γ-Butyrolactone]	0.01 psi
